Source: US6207411A, “Bacteriocins” (priority 1995, dated 2001)

Key:
Pepsin = assay: Protease sensitivity assay; details: enzyme 50 mg/ml in 0.02N HCl
Method: (§1) The following enzymes were dissolved in sterile distilled H2 O (SDW) to a final concentration of 50 mg/ml: Trypsin (type II, Sigma Chemical Co., Poole, Dorset, England), alpha-chymotrypsin (type II, Sigma), Proteinase K (Sigma), Pronase E (type XIV, Sigma), Catalase (Sigma). Pepsin was dissolved in 0.02N HCl, also to a final concentration of 50 mg/ml. All enzyme solutions were filter sterilised using disposable filters (Rotrand/Red rim 0.2 μm, Schleicher & Schuell). 20 μl aliquots of filtered cell-free bacteriocin solution and 20 μl of each enzyme solution were spotted 1 cm apart on GM17 agar plates and dried for 30 min. All plates were incubated overnight at 30° C. The plates move subsequently overlaid with the indicator organism. […] was evident as a zone of inhibition. Controls included plates with spots of either bacteriocin solution or enzyme solution.

[1] = Bacteriocin activity in teat seals; details: teat seal without Tween 20 or 80 (2% required)
Method: FIG. 14A. Antimicrobial effectiveness of lacticin 3147 requires the presence of Tween Au/ml) has been added.
TY (Tryptone 2.5 g/L, Yeast Extract 5 g/L, Glucose 10 g/L, b-glycerophosphate 19 g/L, MgSO4.7H2O 0.25 g/L, MnSO4.4H2O 0.05 g/L, pH 6.75) broth was prefiltered (15 filter/liter) with HA (Millipore) filters to remove proteins in the media which would bind to the filters. L. lactis DPC 3147 was then grown overnight in the filtered TY-broth. The culture was centrifuged at 10,000 rpm for 15 minutes and then filtered through HVLP filters (Millipore). The bacteriocin was then bound to HA filters (8 filters/liter) and subsequently harvested from the filters using acetone/5 mM Phosphate-Buffer, pH 7.0 (2:1). The mix was subsequently centrifuged and the acetone removed by evaporation. The resultant bacteriocin preparation was freeze-dried and dissolved in sterile distilled water. This was then assayed as above. To add bacteriocin into the teat seal 17,000 units of the bacteriocin prepared as above was added to the seal in a sterile petri disc. On mixing, the bacteriocin and seal formed as emulsion which was then aseptically transferred to a syringe (Cross Vetpharm).

L. lactis AM2 = assay: Bacteriocin assayed directly in cheese samples; design: species or system Lactococcus lactis
Method: Bacteriocin activity was assayed from cheese samples as follows. Cheese samples were initially macerated in equal volumes of distilled water in a stomacher (Lab-Blender 400) for 15 min and heated to 80° C. for 10 min. Then aliquots of 50 μl were dispensed in wells and bacteriocin activity calculated as the difference in area of the zone of inhibition (in mm2) and the area of the well (as outlined previously).
Since then we have assayed the bacteriocin in these cheeses. In Cheese trial 1 the presence of lacticin 3147 in take test cheese was confirmed (using L. lactis AM2 as the indicator strain) at a level of approximately 1.280 AU/ml which remained constant in the cheese over the 28-week ripening period (FIG. 13A). In contrast, no anti-microbial activity was detected in the control cheese. Similarly, the amount of bacteriocin detected in cheese trial 2 was approximately 1.280 AU/ml which also remained constant over the ripening period (FIG. 13B). Thus the level of bacteriocin observed in the cheese corresponds to the number of NSLABs which occur in the cheese during ripening.

[2] = test system: four cariogenic streptococci; assay: Sensitivity of oral streptococci; format: cell-based; details: four cariogenic strains from infected patients
Method: Four cariogenic streptococcal strains isolated from infected patients were grown overnight at 30° C. in Brain Heart Infusion broth. These strains were obtained from Dr. Ger Fitzgerald, University College Cork. The relative sensitivity of each of these strains to the bacteriocin was then determined in comparison to L. lactis HP.

[3] = format: physicochemical; details: pH 9, up to 100° C., 10 minutes; 100% = unheated at that pH
Method: FIG. 6. Effect of heating at 60° C. to 121° C. for 10 minutes on the stability of lacticin 3147 at pH5, pH7, pH9. 100% activity is the activity at pH 5, 7 and 9 with no heating.
A cell-free bacteriocin was exposed to various pH/temperature treatments. Samples were heated to 60, 70, 80, 90, 100, 110 and 121° C. at pH5, pH7 and pH9 for 10 min. Following treatment, all solutions were rapidly cooled and bacteriocin activity was assayed by the well diffusion method.
Three samples of bacteriocin were brought to a pH of 5, 7 and 9 and aliquots of each were subsequently heated to 60° C., 70° C., 80° C., 90° C., 100° C., 110° C. and 121° C. for 10 minutes. The activity at each pH prior to heat treatment was measured and was taken to be 100% for that pH value. From the graphical representation in FIG. 6, it can be seen that lacticin 3147 is heat-stable, particularly at an acid pH.

[4] = test system: Streptococcus dysgalactiae M; assay: Frequency of resistance development of a mastitic strain; format: cell-based; details: prolonged exposure
From the text: As a result of the growing concern over the use of antibiotics for the treatment and prevention of disease in animals the potential of using lacticin 3147 in the prevention of bovine mastitis was investigated. To achieve this the bacteriocin was incorporated into teat seals preparations. These seals are manufactured by Cross Vetpharm (Broomhill Road, Tallaght, Dublin 24. Ireland) and act as a physical barrier in the cow against infection. The bacteriocin provides an additional anti-microbial barrier over the physical one provided by the seal itself. Incorporation of the bacteriocin into the teat seals first required the preparation of the bacteriocin in a highly concentrated and semi-purified form. The anti-microbial effectiveness of lacticin 3147 in the environment of the seal required the addition of either Tween 20 or 80 in concentrations of 2% (FIG. 14A). […] Having successfully prepared effective bacteriocin-containing teat seals a number of animal trials were then performed. These involved exposure of the modified seals to the animal for different time periods after which the seals were removed. […] Other aspects of this study focused on the frequency at which a mastitic strain can develop resistance to lacticin 3147 since this could limit its practical usefulness as an effective antimicrobial under certain conditions. […]

Catalase = assay: Protease sensitivity assay (catalase); details: enzyme 50 mg/ml
Method: as §1

[5] = test system: Streptococcus dysgalactiae M; assay: Effectiveness on Streptococcus dysgalactiae M (plate counts); format: cell-based; details: 10.240 AU/ml, stationary phase cells, 2 hours, 37° C.
Method: FIG. 14B. Effect of adding lacticin 3147 (10.240 AU/ml) to stationary cells of Streptococcus dysgalactiae.
10 μl from a overnight culture was added to 490 μl of sterile 50 mM phosphate-buffer. pH 7.0 500 μl lacticin 3147 (10,000 AU/ml) was then added and plate counts were carried out after 0, 15, 30, 60, 90 and 120 minutes at 37° C. to assess cell viability.

Trypsin = target: T1, Trypsin (Sus scrofa, UniProt P00761); assay: Protease sensitivity assay; details: enzyme 50 mg/ml spotted beside bacteriocin; indicator L. lactis HP
T1 construct: purchased Sigma Chemical Co., Poole, Dorset, England type II
T1 sequence (P00761 9-231): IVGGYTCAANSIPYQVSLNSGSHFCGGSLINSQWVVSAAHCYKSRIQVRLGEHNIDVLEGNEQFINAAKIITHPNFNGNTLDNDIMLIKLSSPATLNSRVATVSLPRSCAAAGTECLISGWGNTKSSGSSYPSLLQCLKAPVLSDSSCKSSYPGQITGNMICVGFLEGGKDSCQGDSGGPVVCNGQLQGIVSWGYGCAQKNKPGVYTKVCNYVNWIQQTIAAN
Method: (§2) FIGS. 2A, 2B, 2C, 2D, and 2E. Protease Sensitivity Assay. Filtered cell-free bacteriocin solution and enzyme solution (A represents control, no enzyme; B, alpha-chymotrypsin; C, trypsin; D, pronase E and E represents proteinase K) were spotted 1 cm apart on GM17 agar plates and subsequently overlaid with the indicator L. lactis strain HP.
as §1

Pronase E = assay: Protease sensitivity assay; details: enzyme 50 mg/ml spotted beside bacteriocin; indicator L. lactis HP
Method: as §2, §1

Proteinase K = target: T2, Proteinase K (Parengyodontium album, UniProt P06873); assay: Protease sensitivity assay; details: enzyme 50 mg/ml spotted beside bacteriocin; indicator L. lactis HP
T2 construct: purchased Sigma
T2 sequence (P06873 106-384): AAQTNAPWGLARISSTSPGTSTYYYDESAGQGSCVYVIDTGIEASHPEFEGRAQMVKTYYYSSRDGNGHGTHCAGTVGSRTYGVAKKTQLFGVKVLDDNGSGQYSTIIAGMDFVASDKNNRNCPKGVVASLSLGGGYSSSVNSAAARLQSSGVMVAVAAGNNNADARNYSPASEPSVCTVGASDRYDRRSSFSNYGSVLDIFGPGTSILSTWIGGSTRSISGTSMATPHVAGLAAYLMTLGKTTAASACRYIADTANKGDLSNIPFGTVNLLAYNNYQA
Method: as §2, §1

alpha-chymotrypsin = target: T3, alpha-chymotrypsin (Bos taurus, UniProt P00766, DEL14-15/DEL147-148); assay: Protease sensitivity assay; details: enzyme 50 mg/ml spotted beside bacteriocin; indicator L. lactis HP
T3 construct: purchased Sigma type II
Method: as §2, §1

[6] = test system: L. lactis subsp. lactis MG1614; assay: Spontaneous resistance on media containing lacticin 3147; format: cell-based, Lactococcus lactis; details: MG1614 plated up to 10^8 -10^9 CFU/ml
Method: Plates containing bacteriocin were prepared as follows. A cell-free, sterile bacteriocin solution was obtained from an overnight culture of L. lactis DPC3147 grown in GM17 by first centrifuging at 8000 g (Sorvall RC-5B) for 10 min. The resulting supernatant was then sterilized by filtering with Millipore HVLP filters (0.45 um) and tempered to 45° C. An equal volume was then added to double strength GM17 and the plates were poured. Where needed, streptomycin was added to agar at a concentration of 500 μg/ml.
During initial genetic work with lacticin 3147, it was observed that the bacteriocin-producing property was an easily lost trait. Preliminary experiments were attempted to establish if bacteriocin production by DPC3147 was encoded on a conjugally transmissable piece of DNA. These conjugal matings involved using DPC3147 as the donor strain and the plasmid-free strain, L. lactis subsp. lactis MG1614, which is streptomycin resistant as the recipient. The selection of transconjugants from such matings was achieved using the plasmid-encoded bacteriocin immunity/resistance determinants as a selectable marker. This involved the incorporation of lacticin 3147 into the selective media. […] The incorporation of lacticin 3147 into selective media may thus form the basis for a novel food-grade marker system for use in genetic manipulation of lactococci. […]

NCDO496 = assay: MIC of pure nisin; format: cell-based, Lactococcus lactis; details: pure nisin against strain NCDO496
From the text: (§3) As expected, catalase had no effect on the antimicrobial activity of the 3147 bacteriocin thus eliminating the possibility that the antimicrobial activity may be due to hydrogen peroxide. In addition, none of the strains producing lacticin 3147 were capable of fermenting sucrose. This provides additional evidence that this bacteriocin is not nisin, since the genes encoding nisin (nis A) is linked to genes responsible for sucrose catabolism on the nisin-sucrosetransposon. Tn5276 (Horn et. al., 1991). Thus, all those Nip^+ (nisin-producing) strains studied to date are in addition Suc^+ (Sucrose-fermenting).

DPC3147 = assay: MIC of pure nisin; format: cell-based, Lactococcus lactis; details: pure nisin against strain DPC3147
From the text: as §3

For lacticin 3147, the Sensitivity to pepsin (Pepsin) was “not to pepsin”, the “Bacteriocin activity in treated seals” value [1] was “negligible bacteriocin activity” and the “Level of bacteriocin in cheese” value (L. lactis AM2; cheese trial 1, constant over the 28-week ripening period) was “approximately 1.280 AU/ml”. For the same substance, the “Level of bacteriocin in cheese” value (L. lactis AM2; cheese trial 2, constant over the ripening period) was “approximately 1.280 AU/ml”, the “Sensitivity relative to L. lactis HP” value [2] was 12.5% and the “Activity maintained after heating” value [3] was “more than 50%”. The “Bacterial cells that developed increased tolerance” value [4] was 0.003%, the “Effect of catalase on antimicrobial activity” value (Catalase) was “no effect” and the Kill [5] was 99.99%. The Sensitivity to trypsin (Trypsin) was “sensitive”, the “Sensitivity to pronase E” value (Pronase E) was “sensitive” and the “Sensitivity to proteinase K” value (Proteinase K) was “sensitive”. The Sensitivity to alpha-chymotrypsin (alpha-chymotrypsin) was “sensitive” and the “Growth of sensitive cells on media containing lacticin 3147” value [6] was “failed to grow”.

In the case of nisin, the “minimum concentrations (MIC) required for inhibition” value (NCDO496) is reported as 400 µg/mL and the “minimum concentrations (MIC) required for inhibition” value (DPC3147) is reported as 100 µg/mL.
